Data from ChEMBL document CHEMBL3632480, “Optimization of an indazole series of selective estrogen receptor degraders: Tumor regression in a tamoxifen-resistant breast cancer xenograft” (Bioorg Med Chem Lett, 2015).
Calls of active or inactive are those of the source. No cut-off for these calls is given here.

Tests used:
MCF7 [1] = assay: Decrease in estrogen receptor alpha level in human MCF7 cells after 4 hrs by in-cell western assay; format: functional, cell-based; conditions: MCF7, 4 h
MCF7 [2] = assay: Decrease in estrogen receptor alpha level in human MCF7 cells 2 to 10 uM after 4 hrs by in-cell western assay; format: functional; conditions: MCF7, 4 h
MCF7 [3] = assay: Cytotoxicity against human MCF7 cells assessed as decrease in cell viability after 5 days by celltiterGlo assay; format: functional, cell-based; conditions: MCF7, 120 h
MCF7 [4] = assay: Decrease in estrogen receptor alpha level in human MCF7 cells after 4 hrs by in-cell western assay relative to fulvestrant; format: functional; conditions: MCF7, 4 h
Rattus norvegicus = assay: Decrease in uterine wet weight of CD-IGS rat at 1 mg/kg, po qd followed 15 mins later administration of 0.1 mg/kg, po 17alpha-ethynylestradiol for 3 consecutive days; format: functional
[5] = Fraction unbound in CD-1 mouse plasma by equilibrium dialysis; format: ADME, cell-free
[6] = AUC in CD-1 mouse at 10 mg/kg, po; format: ADME, organism-based; conditions: in vivo
MCF7 [7] = assay: Antitumor activity against human MCF7 cells xenografted in tamoxifen-resistant nu/nu mouse model implanted with 17beta-estradiol pellets assessed as tumor regression at 30 mg/kg qd for 4 weeks; format: functional, organism-based

Row | SMILES | EC50 (MCF7 [1]) [nM] | fraction unbound [5] | AUC [6] [ng·h/mL] | Emax (MCF7 [2]) [%] | IC50 (MCF7 [3]) [nM] | Emax (MCF7 [4]) [%] | inhibition (INH) (Rattus norvegicus) [%] | Activity (MCF7 [7])
1 | O=C(O)/C=C/c1ccc(/C(=C(\c2ncccc2Cl)C2CCC2)c2ccc3[nH]nc(F)c3c2)cc1 | 0.3 | 0.032 | 900 | – | 1.2 | 90 | 83 | –
2 | CC/C(=C(/c1ccc(/C=C/C(=O)O)cc1)c1cnc2[nH]ncc2c1)c1ccccc1 | 116 | – | – | 93 | 302 | – | – | –
3 | N#Cc1cc(F)ccc1/C(=C(\c1ccc(/C=C/C(=O)O)cc1)c1ccc2[nH]nc(F)c2c1)C1CCC1 | 0.3 | 0.021 | 760 | – | 1.2 | 92 | 57 | –
4 | CS(=O)(=O)c1cc(Cl)ccc1/C(=C(\c1ccc(/C=C/C(=O)O)cc1)c1ccc2[nH]nc(F)c2c1)C1CCC1 | 0.3 | 0.035 | 200 | – | 0.3 | 91 | 94 | –
5 | CC/C(=C(/c1ccc(/C=C/C(=O)O)cc1)c1cc2cn[nH]c2cc1F)c1ccccc1 | 64 | – | – | 96 | 47 | – | – | –
6 | N#Cc1cc(Cl)ccc1/C(=C(\c1ccc(/C=C/C(=O)O)cc1)c1ccc2[nH]nc(F)c2c1)C1CCC1 | 0.3 | 0.007 | 3700 | – | 0.7 | 94 | 87 | –
7 | N#Cc1ccc(/C(=C(\c2ccc(/C=C/C(=O)O)cc2)c2ccc3[nH]nc(F)c3c2)C2CCC2)c(Cl)c1 | 0.3 | 0.006 | 7800 | – | 0.7 | 93 | 85 | –

Continued by falling EC50 (MCF7 [1]), values first:

Row | EC50 (MCF7 [1]) [nM] | fraction unbound [5] | AUC [6] [ng·h/mL] | SMILES | Emax (MCF7 [2]) [%] | IC50 (MCF7 [3]) [nM] | Emax (MCF7 [4]) [%] | inhibition (INH) (Rattus norvegicus) [%] | Activity (MCF7 [7])
8 | 384 | – | – | CC/C(=C(/c1ccc(/C=C/C(=O)O)cc1)c1cc2cn[nH]c2cn1)c1ccccc1 | 88 | 442 | – | – | –
9 | 353 | – | – | CC/C(=C(/c1ccc(/C=C/C(=O)O)cc1)c1ccc2[nH]nc(C)c2c1)c1ccccc1 | 86 | > 1000 | – | – | –
10 | 272 | – | – | CC/C(=C(/c1ccc(/C=C/C(=O)O)cc1)c1cc2cn[nH]c2cc1C)c1ccccc1 | 84 | 468 | – | – | –
11 | 102 | – | – | CC/C(=C(/c1ccc(/C=C/C(=O)O)cc1)c1ccc2[nH]nc(Cl)c2c1)c1ccccc1 | 89 | 284 | – | – | –
12 | 54 | – | – | CC/C(=C(/c1ccc(/C=C/C(=O)O)cc1)c1cc2cn[nH]c2cc1Cl)c1ccccc1 | 87 | 137 | – | – | –
13 | 1.3 | 0.014 | 24300 | O=C(O)/C=C/c1ccc(/C(=C(\c2ncc(C(F)(F)F)cc2Cl)C2CCC2)c2ccc3[nH]nc(F)c3c2)cc1 | – | 4.4 | 94 | 77 | Active
14 | 0.8 | 0.011 | 15600 | O=C(O)/C=C/c1ccc(/C(=C(\c2ncc(Cl)cc2Cl)C2CCC2)c2ccc3[nH]nc(F)c3c2)cc1 | – | 3.5 | 91 | 80 | –
15 | 0.4 | 0.014 | 14600 | N#Cc1cc(C(F)(F)F)ccc1/C(=C(\c1ccc(/C=C/C(=O)O)cc1)c1ccc2[nH]nc(F)c2c1)C1CCC1 | – | 1.2 | 94 | 75 | Active
16 | 0.4 | 0.003 | 11100 | O=C(O)/C=C/c1ccc(/C(=C(\c2ccccc2Cl)C2CCC2)c2ccc3[nH]nc(F)c3c2)cc1 | – | 1.1 | 90 | 82 | –
17 | 0.3 | 0.012 | 1800 | O=C(O)/C=C/c1ccc(/C(=C(\c2ccncc2Cl)C2CCC2)c2ccc3[nH]nc(F)c3c2)cc1 | – | 0.8 | 90 | 74 | –
